The values that follow come from PubChem BioAssay (NCI).

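Cultured in 96-well plates, cells were exposed to test compound for 48 hours across five concentrations. Here, GI50 denotes the concentration required for 50% inhibition of growth. At the TGI there is no net growth.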 A value given as a limit tells only on which side of the number the result lay.

Test systems include SF-268 CNS; COLO 205 colon; NCI-H226 lung; SK-OV-3 ovarian; CAKI-1 renal; BT-549 breast; HCT-15 colon; LOX IMVI melanoma; HOP-62 NSCLC; HOP-92 NSCLC.
Holding throughout (assay): growth of human tumour cells (NCI), 48 h

In the case of `C#Cc1cccc(Nc2nc(C)nc3cc(NC(=O)CCl)ccc23)c1`, the GI50 in the assay on SF-268 CNS is 2.62 µM; in the assay with COLO 205 colon, 3.26 µM; in the assay with NCI-H226 lung, 3.06 µM; with SK-OV-3 ovarian, 3.81 µM; in the assay with CAKI-1 renal, 2.97 µM; in the assay on BT-549 breast it was 1.32 µM. Besides, the GI50 is 0.687 µM in the assay with HCT-15 colon, 0.424 µM in the assay with LOX IMVI melanoma, 3.65 µM in the assay on HOP-62 NSCLC and 0.67 µM in the assay on HOP-92 NSCLC. The TGI with SF-268 CNS is 6.82 µM; in the assay on COLO 205 colon, 7.41 µM; in the assay with NCI-H226 lung it was 8.25 µM; in the assay on SK-OV-3 ovarian, 7.31 µM; with CAKI-1 renal, 6.23 µM; with BT-549 breast, 5.31 µM. Moreover, the TGI with HCT-15 colon was determined as 2.64 µM; with LOX IMVI melanoma it was 0.95 µM; with HOP-62 NSCLC, 7.85 µM; in the assay on HOP-92 NSCLC it was 1.89 µM.
Consider `O=C1NN(C(=O)c2ccccc2)C(c2ccc(Cl)c(Cl)c2)=C/C1=C\c1ccccc1[N+](=O)[O-]`, for which the GI50 was 3.97 µM with SF-268 CNS; 1.52 µM in the assay with COLO 205 colon; 1.44 µM in the assay with NCI-H226 lung; 4 µM with SK-OV-3 ovarian; 2.27 µM in the assay with CAKI-1 renal; 1.18 µM in the assay with BT-549 breast. In addition, the GI50 is 0.923 µM in the assay with HCT-15 colon, 1.14 µM in the assay on LOX IMVI melanoma, 3.44 µM in the assay with HOP-62 NSCLC and 1.43 µM in the assay on HOP-92 NSCLC. For the same compound, the TGI is above 6.75 µM with SF-268 CNS; 3.49 µM in the assay on COLO 205 colon; above 6.75 µM in the assay on NCI-H226 lung; above 6.75 µM in the assay on SK-OV-3 ovarian; above 6.75 µM in the assay with CAKI-1 renal; 5.4 µM in the assay with BT-549 breast. Also, the TGI is 2.99 µM in the assay on HCT-15 colon, 3.49 µM in the assay with LOX IMVI melanoma, above 6.75 µM in the assay on HOP-62 NSCLC and above 6.75 µM in the assay on HOP-92 NSCLC.
Consider `CCCCNC(=O)Oc1ccc(/C(=C(\C)c2ccc(OC)cc2)c2ccc(OCCN3CCCCC3)cc2)cc1`, for which the GI50 in the assay on SF-268 CNS is 5.55 µM; with COLO 205 colon it was 2.07 µM; in the assay on NCI-H226 lung it was 7.77 µM; in the assay on SK-OV-3 ovarian, 7.63 µM; in the assay on CAKI-1 renal, 1.94 µM; in the assay with BT-549 breast, 1.48 µM. Besides, the GI50 with HCT-15 colon is 1.67 µM; in the assay with LOX IMVI melanoma, 1.83 µM; in the assay with HOP-62 NSCLC it was 3.15 µM; in the assay on HOP-92 NSCLC, 1.57 µM. In addition, the TGI in the assay with SF-268 CNS stood at 20.5 µM; in the assay with COLO 205 colon it was 4.63 µM; in the assay with NCI-H226 lung, 27.9 µM; in the assay on SK-OV-3 ovarian it was 25 µM; in the assay on CAKI-1 renal, 3.92 µM; in the assay with BT-549 breast it was 2.89 µM. In addition, the TGI with HCT-15 colon was 4.52 µM; in the assay on LOX IMVI melanoma, 3.44 µM; in the assay on HOP-62 NSCLC, 10.7 µM; in the assay with HOP-92 NSCLC, 3.71 µM.
As to `O=C(O)c1nn(-c2ccc(Cl)cc2)c2c1C(=O)c1ccccc1C2=O`, the TGI in the assay with SF-268 CNS, in the assay on COLO 205 colon, in the assay with NCI-H226 lung, with SK-OV-3 ovarian, in the assay with CAKI-1 renal and with BT-549 breast was above 100 µM each time. Further, the TGI with HCT-15 colon, in the assay with LOX IMVI melanoma, in the assay on HOP-62 NSCLC and in the assay with HOP-92 NSCLC was above 100 µM throughout.
For `Cn1cc(-c2ncnc3ccc(-c4cnc(Cl)c(NS(C)(=O)=O)c4)cc23)c2ccccc21`, the GI50 is 1.09 µM in the assay on SF-268 CNS; 0.829 µM in the assay on COLO 205 colon; 1.25 µM in the assay with NCI-H226 lung; 0.263 µM in the assay on SK-OV-3 ovarian; 0.415 µM in the assay with CAKI-1 renal; 0.566 µM in the assay with BT-549 breast. The GI50 in the assay on HCT-15 colon was 0.447 µM; with LOX IMVI melanoma it was 0.48 µM; in the assay with HOP-62 NSCLC it was 0.791 µM; in the assay on HOP-92 NSCLC, 0.0408 µM. The TGI was above 100 µM with SF-268 CNS; 13.1 µM with COLO 205 colon; 74.7 µM in the assay with NCI-H226 lung; 2.32 µM with SK-OV-3 ovarian; 27 µM with CAKI-1 renal; 7.68 µM in the assay on BT-549 breast. The TGI in the assay with HCT-15 colon is above 71.1 µM; in the assay on LOX IMVI melanoma, 11.8 µM; in the assay with HOP-62 NSCLC, above 22.6 µM; in the assay with HOP-92 NSCLC, 0.634 µM.
